{"source": "patent US20240124387A1", "about": "“ACID RECOVERY” (GREENCOVERY B.V., priority 2021, published 2024)", "key": {"[1]": {"test": "Precipitation with CO2 in solutions containing different amino acids, ethanol and water (table 3)", "format": "physicochemical", "settings": "for Concentration of amino acid in the liquid, Before precipitation / Concentration of amino acid in the liquid, After precipitation / Precipitate: 0.5M NaOH; for Concentration of amino acid in the liquid, After precipitation / Precipitate: after CO2; for Precipitate: includes sodium (bi)carbonate; for share of the amino acid precipitated when providing CO2: 80 wt. % ethanol", "source_text": "A variety of eluates, comprising different amino acids, and solvent concentrations were subjected to the precipitation stage as summarized in table 3: […]"}, "[2]": {"test": "Precipitation stage: eluate (desorption) samples sparged with CO2, acid quantified again", "format": "physicochemical", "settings": "for reduction of organic acid concentration in solution after sparging with CO2: desorption samples of Example 1 (90 wt. % ethanol, 1M KOH); for reduction of amino acid concentration in solution (in the eluate) after CO2 sparging: eluate samples with highest amino acid content, 0.425 M KOH in 93.5 wt. % ethanol", "procedure": "In the precipitation stage, the desorption samples were sparged with CO2, and the organic acids were quantified again the precipitation stage.\nThe eluate was separated into four samples of 7.5 mL each."}, "[3]": {"settings": "20 wt. % water, 80% wt. % ethanol"}, "[4]": {"settings": "37.6 wt. % water, 62.4 wt. % ethanol"}, "[5]": {"settings": "50 wt. % water, 50 wt. % ethanol"}, "[6]": {"settings": "second 7.5 mL eluate sample, 90 wt. % methanol, 0.85M KOH"}}, "note": "Marks after values point to notes of the source that are not given here.", "data": [{"compound": "NCCCC[C@H](N)C(=O)O", "note": "[Lysine]", "values": [{"measurement": "Concentration of amino acid in the liquid, Before precipitation", "setting": "[1]; [3]", "value": 10.3, "unit": "g/L"}, {"measurement": "Concentration of amino acid in the liquid, After precipitation", "setting": "[1]; [3]", "value": 3400, "unit": "µg/mL"}, {"measurement": "Precipitate", "setting": "[1]; [3]", "value": 32.5, "unit": "g/L"}, {"measurement": "Concentration of amino acid in the liquid, Before precipitation", "setting": "[1]; [4]", "value": 10.4, "unit": "g/L"}, {"measurement": "Concentration of amino acid in the liquid, After precipitation", "setting": "[1]; [4]", "value": 10300, "unit": "µg/mL"}, {"measurement": "Precipitate", "setting": "[1]; [4]", "value": 22.0, "unit": "g/L"}, {"measurement": "Concentration of amino acid in the liquid, Before precipitation", "setting": "[1]; [5]", "value": 10.3, "unit": "g/L"}, {"measurement": "Concentration of amino acid in the liquid, After precipitation", "setting": "[1]; [5]", "value": 10600, "unit": "µg/mL"}, {"measurement": "Precipitate", "setting": "[1]; [5]", "value": 25.9, "unit": "g/L"}]}, {"compound": "CC(=O)O", "note": "[acetate]", "values": [{"measurement": "concentration in eluate sample after CO2 sparging", "setting": "[2]; [6]", "value": 24300, "unit": "µg/mL"}, {"measurement": "concentration in eluate sample before CO2 sparging", "setting": "[2]; [6]", "value": 24600, "unit": "µg/mL"}]}, {"compound": "CC(O)C(=O)O", "note": "(stereo not drawn) [lactate, lactic acid]", "values": [{"measurement": "reduction of organic acid concentration in solution after sparging with CO2", "setting": "[2]", "value": "(essentially) no reduction"}]}, {"compound": "C[C@H](N)C(=O)O", "note": "[alanine, L-alanine]", "values": [{"measurement": "reduction of amino acid concentration in solution (in the eluate) after CO2 sparging", "setting": "[2]", "value": "~31", "unit": "%"}]}, {"compound": "N[C@@H](CCC(=O)[O-])C(=O)[O-].[Na+].[Na+]", "note": "[Sodium glutamate]", "values": [{"measurement": "Concentration of amino acid in the liquid, Before precipitation", "setting": "[1]; [3]", "value": "10.1* g/L"}, {"measurement": "Concentration of amino acid in the liquid, After precipitation", "setting": "[1]; [3]", "value": 800, "unit": "µg/mL"}, {"measurement": "Precipitate", "setting": "[1]; [3]", "value": 35.5, "unit": "g/L"}, {"measurement": "Concentration of amino acid in the liquid, Before precipitation", "setting": "[1]; [4]", "value": 10.1, "unit": "g/L"}, {"measurement": "Concentration of amino acid in the liquid, After precipitation", "setting": "[1]; [4]", "value": 4300, "unit": "µg/mL"}, {"measurement": "Precipitate", "setting": "[1]; [4]", "value": 34.1, "unit": "g/L"}, {"measurement": "behaviour of the amino acid when providing CO2", "setting": "[1]; 50 wt. % ethanol", "value": "remained in solution"}, {"measurement": "Concentration of amino acid in the liquid, Before precipitation", "setting": "[1]; [5]", "value": 10.1, "unit": "g/L"}, {"measurement": "Concentration of amino acid in the liquid, After precipitation", "setting": "[1]; [5]", "value": 10800, "unit": "µg/mL"}, {"measurement": "Precipitate", "setting": "[1]; [5]", "value": 17.5, "unit": "g/L"}, {"measurement": "behaviour of the amino acid when providing CO2", "setting": "[1]; 62.4% ethanol", "value": "partially precipitated"}, {"measurement": "share of the amino acid precipitated when providing CO2", "setting": "[1]", "value": "over 90%"}]}, {"compound": "CCCCCC(=O)O", "note": "[caproate, caproic acid]", "values": [{"measurement": "reduction of organic acid concentration in solution after sparging with CO2", "setting": "[2]", "value": "(essentially) no reduction"}]}, {"compound": "N[C@@H](Cc1ccccc1)C(=O)O", "note": "[Phenylalanine]", "values": [{"measurement": "Concentration of amino acid in the liquid, Before precipitation", "setting": "[1]; [3]", "value": 10.3, "unit": "g/L"}, {"measurement": "Concentration of amino acid in the liquid, After precipitation", "setting": "[1]; [3]", "value": 3600, "unit": "µg/mL"}, {"measurement": "Precipitate", "setting": "[1]; [3]", "value": 27.4, "unit": "g/L"}, {"measurement": "Concentration of amino acid in the liquid, Before precipitation", "setting": "[1]; [4]", "value": 10.2, "unit": "g/L"}, {"measurement": "Concentration of amino acid in the liquid, After precipitation", "setting": "[1]; [4]", "value": 9100, "unit": "µg/mL"}, {"measurement": "Precipitate", "setting": "[1]; [4]", "value": 20.6, "unit": "g/L"}, {"measurement": "Concentration of amino acid in the liquid, Before precipitation", "setting": "[1]; [5]", "value": 10.3, "unit": "g/L"}, {"measurement": "Concentration of amino acid in the liquid, After precipitation", "setting": "[1]; [5]", "value": 10300, "unit": "µg/mL"}, {"measurement": "Precipitate", "setting": "[1]; [5]", "value": 16.9, "unit": "g/L"}]}, {"compound": "N[C@@H](CCC(=O)O)C(=O)O", "note": "[Glutamic acid]", "values": [{"measurement": "reduction of glutamic acid concentration in solution after CO2 sparging", "setting": "[2]; 0.85 M KOH in 90 wt. % ethanol (AA4)", "value": "approximately 74%"}, {"measurement": "reduction of glutamic acid concentration in solution after CO2 sparging", "setting": "[2]; 1M NaOH in 62.4 wt. % ethanol (AA5)", "value": "approximately 90%"}, {"measurement": "reduction of amino acid concentration in solution (in the eluate) after CO2 sparging", "setting": "[2]", "value": "approximately 68%"}, {"measurement": "Concentration of amino acid in the liquid, Before precipitation", "setting": "[1]; [3]", "value": "10.1* g/L"}, {"measurement": "Concentration of amino acid in the liquid, After precipitation", "setting": "[1]; [3]", "value": 700, "unit": "µg/mL"}, {"measurement": "Precipitate", "setting": "[1]; [3]", "value": 33.7, "unit": "g/L"}, {"measurement": "Concentration of amino acid in the liquid, Before precipitation", "setting": "[1]; [4]", "value": 10.1, "unit": "g/L"}, {"measurement": "Concentration of amino acid in the liquid, After precipitation", "setting": "[1]; [4]", "value": 4800, "unit": "µg/mL"}, {"measurement": "Precipitate", "setting": "[1]; [4]", "value": 30.5, "unit": "g/L"}]}, {"compound": "CSCC[C@H](N)C(=O)O", "note": "[Methionine]", "values": [{"measurement": "Concentration of amino acid in the liquid, Before precipitation", "setting": "[1]; [3]", "value": 10.2, "unit": "g/L"}, {"measurement": "Concentration of amino acid in the liquid, After precipitation", "setting": "[1]; [3]", "value": 4100, "unit": "µg/mL"}, {"measurement": "Precipitate", "setting": "[1]; [3]", "value": 27.4, "unit": "g/L"}, {"measurement": "Concentration of amino acid in the liquid, Before precipitation", "setting": "[1]; [4]", "value": 10.2, "unit": "g/L"}, {"measurement": "Concentration of amino acid in the liquid, After precipitation", "setting": "[1]; [4]", "value": 9600, "unit": "µg/mL"}, {"measurement": "Precipitate", "setting": "[1]; [4]", "value": 21.2, "unit": "g/L"}, {"measurement": "Concentration of amino acid in the liquid, Before precipitation", "setting": "[1]; [5]", "value": 10.3, "unit": "g/L"}, {"measurement": "Concentration of amino acid in the liquid, After precipitation", "setting": "[1]; [5]", "value": 9600, "unit": "µg/mL"}, {"measurement": "Precipitate", "setting": "[1]; [5]", "value": 15.2, "unit": "g/L"}]}, {"compound": "CC(C)C[C@H](N)C(=O)O", "note": "[Leucine, L-leucine]", "values": [{"measurement": "reduction of amino acid concentration in solution (in the eluate) after CO2 sparging", "setting": "[2]", "value": "> 99", "unit": "%"}, {"measurement": "Concentration of amino acid in the liquid, Before precipitation", "setting": "[1]; [3]", "value": 10.3, "unit": "g/L"}, {"measurement": "Concentration of amino acid in the liquid, After precipitation", "setting": "[1]; [3]", "value": 9100, "unit": "µg/mL"}, {"measurement": "Precipitate", "setting": "[1]; [3]", "value": 20.7, "unit": "g/L"}, {"measurement": "Concentration of amino acid in the liquid, Before precipitation", "setting": "[1]; [4]", "value": 9.6, "unit": "g/L"}, {"measurement": "Concentration of amino acid in the liquid, After precipitation", "setting": "[1]; [4]", "value": 9700, "unit": "µg/mL"}, {"measurement": "Precipitate", "setting": "[1]; [4]", "value": 18.1, "unit": "g/L"}, {"measurement": "behaviour of the amino acid when providing CO2", "setting": "[1]; 50 wt. % ethanol", "value": "remained in solution"}, {"measurement": "Concentration of amino acid in the liquid, Before precipitation", "setting": "[1]; [5]", "value": 10.2, "unit": "g/L"}, {"measurement": "Concentration of amino acid in the liquid, After precipitation", "setting": "[1]; [5]", "value": 10200, "unit": "µg/mL"}, {"measurement": "Precipitate", "setting": "[1]; [5]", "value": 12.6, "unit": "g/L"}, {"measurement": "behaviour of the amino acid when providing CO2", "setting": "[1]; 62.4% ethanol", "value": "remained in solution"}, {"measurement": "share of the amino acid precipitated when providing CO2", "setting": "[1]", "value": "less than 10%"}]}]}
